Laboratory results published in US6797714B2, “Carboxyl substituted chroman derivatives useful as beta 3 adrenoreceptor agonists” (Bayer Pharmaceuticals Corporation, priority 1997, dated 2004).

melting point [°C] | SMILES
234 to 235 | CCOC(=O)c1ccc2c(c1)CCC(CNC[C@H](O)c1cccc(Cl)c1)O2.Cl (some centres unmarked)
189 to 190 | CCOC(=O)CCc1ccc2c(c1)CCC(CNC[C@H](O)c1cccc(Cl)c1)O2.Cl (some centres unmarked)
